Experimental data: patent US20240269066A1, “USE OF CYP450 INHIBITOR IN INHIBITING OR KILLING MITES AND TREATING XEROPHTHALMIA” (PRECVISION BIOTECHNOLOGIES LTD., priority 2021, published 2024)
Where a name gives a salt, the structure may show the parent alone.

Tested on: Demodex
Assay: Acaricidal experiment: in vitro culture of Demodex with compound solutions, time to death of mites
Details: 50 μl, 20° C., 96% humidity
Procedure: In this study, Demodex was collected from patients diagnosed with ocular Demodex infection. Those meeting the inclusion criteria would be enrolled after an informed conversation and signing an informed consent form.
Demodex detection was performed according to the conventional eyelash microscopic examination method. 3 eyelashes were extracted from each eyelid, and a total of 12 eyelashes were extracted. The extracted eyelashes were immediately placed on a glass slide, and one piece of each three eyelashes was placed under an ordinary light microscope for observation. Demodex at all stages were counted and classified according to morphology (specific criteria were: Demodex brevis at a head-to-body ratio of 1:1 and Demodex folliculorum at a head-to-body ratio of 1:3 to 1:4). Only adults that were fully exposed to the field of view were taken as subjects (larvae and eggs were not considered as subjects since they were more fragile in early life).
Based on the above detection of Demodex, 50 μl of different solutions were added to each slide, and the survival of the worms was observed every 1 hour. The death was judged by observing whether the worms were active (body, limbs, or the like) under a microscope. Two skilled Demodex-related experimenters observed and judged separately during the experiment. If the judgment results were different, the third skilled experimenter was asked to make an independent judgment. The culture in vitro was performed in a climate chamber at 20° C. and 96% humidity. Slides were transported in a humid chamber under observation and the solution was added appropriately to ensure high humidity before vacuoles appeared on solution evaporation.

Compound | Average survival time of mites (compound 10 mg/mL in 0.9% NaCl) [h] | also measured
Clc1ccccc1C(c1ccccc1)(c1ccccc1)n1ccnc1 [Clotrimazole] | – | Average survival time of mites (compound 0.3 mg/mL in 0.9% NaCl): ~33.01 h; Average survival time of mites (compound 3 mg/mL in 0.9% NaCl): ~23.63 h
CCC(C)n1ncn(-c2ccc(N3CCN(c4ccc(OCC5COC(Cn6cncn6)(c6ccc(Cl)cc6Cl)O5)cc4)CC3)cc2)c1=O (stereo not drawn) [Itraconazole] | 96 | –
Cc1cc(O)c(C(=O)CCC(C)C)c(=O)o1 [Pogostone] | 1.90 ± 1.06 | –
C[C@@H]1CC[C@H]2C(C)(C)[C@H]3C[C@@]12CC[C@@]3(C)O [Cedrol] | <20.04 ± 1.84 | –
N[C@@H]1C[C@H]1c1ccccc1 [Tranylcypromine HCl] | 2.89 ± 1.08 | Average survival time of mites (compound 1 mg/mL in 0.9% NaCl): 7.44 ± 6.07 h; Average survival time of mites (compound 3 mg/mL in 0.9% NaCl): 5.66 ± 0.91 h; Average survival time of mites (compound 30 mg/mL in 0.9% NaCl): 2.24 ± 1.32 h
COc1cc(N)c(Cl)cc1C(=O)NC1CCN(CCCOc2ccc(F)cc2)CC1OC (stereo not drawn) [Cisapride] | 72 | –
N#Cc1ccc(C(c2ccc(C#N)cc2)n2cncn2)cc1 [Letrozole] | 72 | –
COc1c2occc2cc2ccc(=O)oc12 [Methoxsalen] | 18 | –
Cc1ncc([N+](=O)[O-])n1CCO [Metronidazole] | 67 | –
C=C[C@H]1C[N@@]2CC[C@H]1C[C@@H]2[C@@H](O)c1ccnc2ccc(OC)cc12 [Quinidine sulfate] | 5 | Average survival time of mites (compound 1 mg/mL in 0.9% NaCl): 8.33 ± 4.02 h; Average survival time of mites (compound 5 mg/mL in 0.9% NaCl): 5.35 ± 2.09 h
COc1cc(/C=C/C(=O)CC(=O)/C=C/c2ccc(O)c(OC)c2)ccc1O [Curcumin] | 45 | –
CC(=O)N1CCN(c2ccc(OCC3COC(Cn4ccnc4)(c4ccc(Cl)cc4Cl)O3)cc2)CC1 (stereo not drawn) [Ketoconazole] | 97 | –
CC(C)(O)c1ccccc1CC[C@@H](SCC1(CC(=O)O)CC1)c1cccc(/C=C/c2ccc3ccc(Cl)cc3n2)c1 [Montelukast Sodium] | 5 | –
C=C1CC[C@@]23C[C@@H]1C(C)(C)[C@@H]2CC[C@H]3C [β-cedrene] | 42.57 ± 8.89 | –
CCc1ccc(C)c2ccc(C)c-2c1 [Chamazulene] | 11.49 ± 3.93 | –
S=P(N1CC1)(N1CC1)N1CC1 [Thiotepa] | 22 | –
C[C@@H](c1ncncc1F)[C@](O)(Cn1cncn1)c1ccc(F)cc1F [Voriconazole] | 72 | –
Nc1ccc(S(=O)(=O)Nc2ccnn2-c2ccccc2)cc1 [Sulfaphenazole] | 70 | –
CC12CC3CC(C)(C1)CC(N)(C3)C2 [Memantine HCl] | 17 | –
Fc1ccc([C@@H]2CCNC[C@H]2COc2ccc3c(c2)OCO3)cc1 [Paroxetine] | – | Average survival time of mites (compound 1 mg/mL in 0.9% NaCl): 2.44 ± 2.04 h
alpha-bisabolol | 7.60 ± 2.60 | –
O=c1c(O)c(-c2ccc(O)c(O)c2)oc2cc(O)cc(O)c12 [Quercetin] | 4 | –
CCOC(=O)C1=C(C)NC(C)=C(C(=O)OC)C1c1cccc(Cl)c1Cl (stereo not drawn) [Felodipine] | 71 | –
CN/C(=N/CCSCc1nc[nH]c1C)NC#N [Cimetidine] | 53 | –
CO[C@@H]1[C@H](N(C)C(=O)c2ccccc2)C[C@H]2O[C@]1(C)n1c3ccccc3c3c4c(c5c6ccccc6n2c5c31)C(=O)NC4 [Midostaurin] | 42 | –
Cc1ccccc1C(OCCN(C)C)c1ccccc1 (stereo not drawn) [Orphenadrine Citrate] | 4.35 ± 2.05 | Average survival time of mites (compound 1 mg/mL in 0.9% NaCl): ~7.09 ± 1.44 h
COC(=O)[C@H](c1ccccc1Cl)N1CCc2sccc2C1 [Clopidogrel Bisulfate] | 23 | –
CN[C@H]1CC[C@@H](c2ccc(Cl)c(Cl)c2)c2ccccc21 [Sertraline HCl] | 2.50 ± 1.37 | Average survival time of mites (compound 1 mg/mL in 0.9% NaCl): 9.07 ± 6.72 h
